Experimental data taken from article PMC7148434, “ACE-domain selectivity extends beyond direct interacting residues at the active site” (Biochemical Journal, 2020).
Square brackets hold non-standard residues; d marks the D form. Ends that are not written are not given here. * marks the point of attachment. Dnp = O=[N+]([O-])c1ccc(*)c([N+](=O)[O-])c1; 2Abz = Nc1ccccc1C(=O)O

B1: Abz-FRK(Dnp)P-OH (peptide)
peptide: [2Abz]FRK(Dnp)P-OH
modifications: N-terminus assumed
SMILES: N=C(N)NCCC[C@H](NC(=O)[C@H](Cc1ccccc1)NC(=O)c1ccccc1N)C(=O)N[C@@H](CCCCNc1ccc([N+](=O)[O-])cc1[N+](=O)[O-])C(=O)N1CCC[C@H]1C(=O)O

Legend:
nACE [1] = assay: Inhibitor binding kinetics, modified Abz-FRK(Dnp)P-OH assay, wild-type N-domain; assay type: biochemical; conditions: Ki cACE / Ki nACE (N-selectivity)
Method: (§1) Serial dilutions of an appropriate range were prepared for each inhibitor in the aforementioned assay buffer. An appropriate concentration of enzyme was similarly prepared and incubated with an equal volume of inhibitor for 15 min at 22°C after which 20 μl volumes of the reactions were aliquoted to a 96-well plate. […] Control (zero inhibitor) reactions containing the appropriate concentration of methanol or DMSO (in the case of ketoACE-13 or omapatrilat, respectively) were included to correct for any possible vehicle-induced effects on the reaction rate.

[2] = biological target: S′-nACE (S260T, E262S, D354E, S357V, T358V and E431D) (Homo sapiens, UniProt P12821, D383E/E291S/E460D/S289T/S386V/T387V); assay: Inhibitor binding kinetics, modified Abz-FRK(Dnp)P-OH assay, S′ mutant; assay type: biochemical; conditions: for Selectivity (Ki cACE/Ki nACE or mutant): Ki cACE / Ki S′-nACE; for decrease in binding affinity compared with nACE: S′-nACE relative to nACE; for Ki: S′-nACE, Morrison plot, 50 mM HEPES pH 6.8, 200 mM NaCl, 10 μM ZnCl2, mean ± SD
Chain of S′-nACE (S260T, E262S, D354E, S357V, T358V and E431D) (P12821 40-624 S289T/E291S/D383E/S386V/T387V/E460D): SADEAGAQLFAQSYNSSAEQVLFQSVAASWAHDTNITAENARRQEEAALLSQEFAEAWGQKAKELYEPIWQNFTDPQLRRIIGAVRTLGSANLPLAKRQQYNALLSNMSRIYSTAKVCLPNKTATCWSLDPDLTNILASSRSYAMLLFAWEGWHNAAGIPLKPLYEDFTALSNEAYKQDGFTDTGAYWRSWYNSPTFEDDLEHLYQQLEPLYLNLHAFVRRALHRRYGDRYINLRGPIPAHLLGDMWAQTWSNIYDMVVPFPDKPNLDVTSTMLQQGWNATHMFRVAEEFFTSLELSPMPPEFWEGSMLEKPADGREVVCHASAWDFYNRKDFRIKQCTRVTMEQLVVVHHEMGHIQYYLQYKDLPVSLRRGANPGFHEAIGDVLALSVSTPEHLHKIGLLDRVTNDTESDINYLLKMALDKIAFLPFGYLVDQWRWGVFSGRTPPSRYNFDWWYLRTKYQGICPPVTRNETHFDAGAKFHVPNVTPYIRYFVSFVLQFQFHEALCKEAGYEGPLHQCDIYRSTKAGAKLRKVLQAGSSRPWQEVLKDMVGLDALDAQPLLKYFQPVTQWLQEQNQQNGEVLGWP
Method: as §1

cACE = cACE (Homo sapiens, UniProt P12821); assay: Inhibitor binding kinetics, modified Abz-FRK(Dnp)P-OH assay, wild-type C-domain; assay type: biochemical; conditions: for Ki: cACE, Morrison plot, 50 mM HEPES pH 6.8, 200 mM NaCl, 10 μM ZnCl2, mean ± SD
Chain of cACE (P12821 643-1222 limits assumed): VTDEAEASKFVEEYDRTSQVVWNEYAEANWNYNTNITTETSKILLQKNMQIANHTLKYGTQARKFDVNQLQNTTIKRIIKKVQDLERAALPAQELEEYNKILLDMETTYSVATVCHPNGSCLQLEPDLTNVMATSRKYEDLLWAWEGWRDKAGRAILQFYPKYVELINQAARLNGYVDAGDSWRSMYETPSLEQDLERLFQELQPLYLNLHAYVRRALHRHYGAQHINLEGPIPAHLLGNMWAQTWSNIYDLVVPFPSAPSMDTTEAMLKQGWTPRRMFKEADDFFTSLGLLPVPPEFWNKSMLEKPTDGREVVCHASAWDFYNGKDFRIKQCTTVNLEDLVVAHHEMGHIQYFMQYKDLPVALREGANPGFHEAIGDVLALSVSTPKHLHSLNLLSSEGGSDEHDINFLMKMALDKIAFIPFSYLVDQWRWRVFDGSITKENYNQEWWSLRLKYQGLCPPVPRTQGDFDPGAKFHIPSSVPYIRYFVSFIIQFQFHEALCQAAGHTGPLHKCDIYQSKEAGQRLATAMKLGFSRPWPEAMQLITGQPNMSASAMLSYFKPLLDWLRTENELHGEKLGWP
Method: as §1

nACE [3] = biological target: nACE (Homo sapiens, UniProt P12821); assay: Inhibitor binding kinetics, modified Abz-FRK(Dnp)P-OH assay, wild-type N-domain; assay type: biochemical; design: The truncated (single domain) wild-type N-domain (nACE); made in house; host or cells: CHO-K1; conditions: nACE; Morrison plot; 50 mM HEPES pH 6.8, 200 mM NaCl, 10 μM ZnCl2; mean ± SD
Chain of nACE (Homo sapiens, UniProt P12821) (P12821 40-624 limits assumed): as the sequence (P12821 40-624 S289T/E291S/D383E/S386V/T387V/E460D) above, with T250S, S252E, E344D, V347S, V348T, D421E counted along it
Method: as §1

[4] = biological target: S2-nACE (Y369F and R381E) (Homo sapiens, UniProt P12821, R410E/Y398F); assay: Inhibitor binding kinetics, modified Abz-FRK(Dnp)P-OH assay, S2 mutant; assay type: biochemical; design: The truncated (single domain) wild-type N-domain (nACE), N-domain mutant constructs; made in house; host or cells: CHO-K1; conditions: for Selectivity (Ki cACE/Ki nACE or mutant): Ki cACE / Ki S2-nACE; for Ki: S2-nACE, Morrison plot, 50 mM HEPES pH 6.8, 200 mM NaCl, 10 μM ZnCl2, mean ± SD; for decrease in binding affinity compared with nACE: S2-nACE relative to nACE
Chain of S2-nACE (Y369F and R381E) (P12821 40-624 Y398F/R410E): as the sequence (P12821 40-624 S289T/E291S/D383E/S386V/T387V/E460D) above, with T250S, S252E, E344D, V347S, V348T, Y359F, R371E, D421E counted along it
Method: as §1

[5] = biological target: S2_S′-nACE (S260T, E262S, D354E, S357V, T358V, Y369F, R381E and E431D) (Homo sapiens, UniProt P12821, D383E/E291S/E460D/R410E/S289T/S386V/T387V/Y398F); assay: Inhibitor binding kinetics, modified Abz-FRK(Dnp)P-OH assay, combined S2_S′ mutant; assay type: biochemical; design: The truncated (single domain) wild-type N-domain (nACE), N-domain mutant constructs; made in house; host or cells: CHO-K1; conditions: for Selectivity (Ki cACE/Ki nACE or mutant): Ki cACE / Ki S2_S′-nACE; for binding affinity lower than that of cACE: S2_S′-nACE relative to cACE; for Ki: S2_S′-nACE, Morrison plot, 50 mM HEPES pH 6.8, 200 mM NaCl, 10 μM ZnCl2, mean ± SD; for decrease in binding affinity compared with nACE: S2_S′-nACE relative to nACE
Chain of S2_S′-nACE (S260T, E262S, D354E, S357V, T358V, Y369F, R381E and E431D) (P12821 40-624 S289T/E291S/D383E/S386V/T387V/Y398F/R410E/E460D): as the sequence (P12821 40-624 S289T/E291S/D383E/S386V/T387V/E460D) above, with Y359F, R371E counted along it
Method: as §1

[6] = Integrity of omapatrilat at ambient temperature monitored by HPLC (dimer formation); assay type: physicochemical
Method: The fluorogenic substrate Abz-FRK(Dnp)P-OH was a kind gift from Prof A.K. Carmona, Universidade Federal de São Paulo. The peptide was dissolved in 100% DMSO and the concentration determined by measuring the absorbance at 365 nm and extinction coefficient of 17 300 M^−1 cm^−1. Subsequent dilutions from the 1 mM stock of were made in assay buffer (50 mM HEPES, pH 6.8, 10 μM ZnCl2, 200 mM NaCl). […] KetoACE-13 was dissolved in 100% methanol to a stock concentration of 50 mM, followed by dilution in deionized distilled water to 10 mM. Since the dimerization of omapatrilat has been previously described, fresh 10 mM stocks of inhibitor were prepared in DMSO directly prior to kinetic analysis. The integrity of omapatrilat at ambient temperature was monitored at 50 µM by HPLC (Agilent 1260 Infinity HPLC System with a Poroshell 120 EC-C 18 column) over the timeframe of each assay, as previously described. A 20 µl injection volume was used with a 0.5 ml/min flow rate with A: 1% ACN, 0.1% TFA; B: 95% ACN, 0.1% TFA; and 0–100% B over 10 min; 214 nm.
Figure 2 . Effect of mutation on N-selective inhibition, integrity of omapatrilat at ambient temperature as monitored by HPLC and SDS–PAGE gel illustrating the decreased molecular mass of the active site mutant N389-S2_S′-nACE. (A) Inhibitor binding affinities (Ki values) for wild-type cACE or nACE mutants are shown on a log scale relative to nACE with error bars representing mean ± SD of at least two independent experiments. (B) Omapatrilat (50 μM in assay buffer) was analyzed using a Poroshell 120 EC-C 18 column on the Agilent 1260 infinity HPLC system. Twenty microliters of the sample was injected onto the column immediately after preparation or following incubation at ambient temperature for 1, 2 or 3 h. Conditions: A: 1% ACN, 0.1% TFA; B: 95% ACN, 0.1% TFA; 0–100% B over 10 min; 0.5 ml/min, 214 nm. […] (C) SDS–PAGE of purified nACE proteins (1) fully glycosylated S2_S′-nACE, (2) minimally glycosylated N389-nACE and (3) minimally glycosylated N389-S2_S′-nACE.

[7] = biological target: S2-nACE (N-domain mutant Y369F and R381E)
[8] = biological target: S2_S′-nACE (N-domain mutant S260T, E262S, D354E, S357V, T358V, Y369F, R381E and E431D)
[9] = biological target: S′-nACE (N-domain mutant S260T, E262S, D354E, S357V, T358V and E431D)
[10] = biological target: Wild-type C-domain of angiotensin-converting enzyme (cACE)
[11] = biological target: Wild-type N-domain of angiotensin-converting enzyme (nACE)

Row | Molecule | Selectivity (Ki cACE/Ki nACE or mutant) (nACE [1]) | Selectivity (Ki cACE/Ki nACE or mutant) [2] | decrease in binding affinity compared with nACE [2] [fold] | Ki [2] [nM] | Selectivity (Ki cACE/Ki nACE or mutant) (cACE) | Ki (cACE) [nM] | Ki (nACE [3]) [nM] | Selectivity (Ki cACE/Ki nACE or mutant) [4] | Ki [4] [nM] | Selectivity (Ki cACE/Ki nACE or mutant) [5] | binding affinity lower than that of cACE [5] [fold] | Ki [5] [nM] | decrease in binding affinity compared with nACE [4] [fold] | decrease in binding affinity compared with nACE [5] [fold] | other results
1 | CC(C)(C)OC(=O)NC(CC(=O)O)C(=O)NC(Cc1ccccc1)C(=O)CCC(=O)N1CCCC1C(=O)O (stereo not drawn) [KetoACE13] | 8 | 3 | 3 | 2990 ± 1000 | 1 | 8250 ± 430 | 1000 ± 270 | 0.5 | 17800 | 0.2 | 6 | 47800 | – | – | –
2 | CC(NC(C(=O)O)C1CCCN1C(=O)C(N)CC(=O)O)C(=O)N1CCCC1C(=O)O (stereo not drawn) [SG6] | 825 | 70 | 11 | 1.09 ± 0.1 | 1 | 76.8 ± 4.3 | 0.093 ± 0.02 | 1.7 | 44 ± 2.8 | 1.1 | – | 72.9 ± 7.5 | 474 | 784 | –
3 | C[C@H](N[C@@H](CCc1ccccc1)C(=O)O)C(=O)N1CCC[C@H]1C(=O)O [Enalaprilat, enalaprilat, reference compound] | – | – | 2.5 | – | – | – | – | – | – | – | 19 | – | 2 | 4 | greater affinity to cACE than nACE (cACE; cACE relative to nACE): 5 fold
4 | O=C(N[C@H]1CCS[C@H]2CCC[C@@H](C(=O)O)N2C1=O)[C@@H](S)Cc1ccccc1 [Omapatrilat, omapatrilat, reference compound] | 2 | 1 | – | 0.49 ± 0.04 | 1 | 0.7 ± 0.09 | 0.37 ± 0.05 | 2 | 0.43 ± 0.13 | 2 | – | 0.29 ± 0.01 | – | – | fraction of dimer detected ([6]; 50 μM in assay buffer (50 mM HEPES pH 6.8), immediately after solubilization): 2.56%; increase in fraction of dimer ([6]; 50 μM in assay buffer, after 1 h at ambient temperature): 0.86%; fraction of dimer detected ([6]; 50 μM in assay buffer, after 3 h of incubation at ambient temperature): 11%
5 | B1 | – | – | – | – | – | – | – | – | – | – | – | – | – | – | Km of Abz-FRK(Dnp)P-OH hydrolysis (Michaelis-Menten model, initial velocities; 50 mM HEPES pH 6.8, 200 mM NaCl, 10 µM ZnCl2, ambient temperature) [7]: 11.9 μM; Km of Abz-FRK(Dnp)P-OH hydrolysis (Michaelis-Menten model, initial velocities; 50 mM HEPES pH 6.8, 200 mM NaCl, 10 µM ZnCl2, ambient temperature) [8]: 12.4 μM; Km of Abz-FRK(Dnp)P-OH hydrolysis (Michaelis-Menten model, initial velocities; 50 mM HEPES pH 6.8, 200 mM NaCl, 10 µM ZnCl2, ambient temperature) [9]: 4.51 μM; Km of Abz-FRK(Dnp)P-OH hydrolysis (Michaelis-Menten model, initial velocities; 50 mM HEPES pH 6.8, 200 mM NaCl, 10 µM ZnCl2, ambient temperature) [10]: 6.3 μM; Km of Abz-FRK(Dnp)P-OH hydrolysis (Michaelis-Menten model, initial velocities; 50 mM HEPES pH 6.8, 200 mM NaCl, 10 µM ZnCl2, ambient temperature) [11]: 7.54 μM
